Assay results as given in patent publication US8962322B2, “Enhancers of induced pluripotent stem cell reprogramming” (City of Hope, priority 2012, dated 2015).
Read-outs that look alike come from different tables or passages of the source.

Experiments:
human Nanog promoter = experiment: Nanog-luc luciferase reporter assay (stably transfected CV1 cells); format: cell-based; details: for Nanog-luc fold Induction / fold induction at 1 µM: compound at 1 μM, Nanog-luc cells, triplicates; for induction of Nanog-luc, comparison with known reprogramming enhancers (in words): OAC1 1 μM, BIO 2 μM, BIX 2 μM, AzaC 2 μM, Vc 25 μg/ml, Am580 10 nM, tranylcypromine 5 μM, VPA 0.5 mM, two days; for fold induction at 1 µM: Chlorocebus aethiops, CV-1
Method: Oct4, Sox2, and Nanog form a positive regulatory loop to regulate the expression of each other, and Nanog is considered a downstream target gene of Oct4 and Sox2 (37). Therefore, activation of Nanog promoter was used as a validation assay for the identified compounds. Specifically, the Oct4 promoter-activating compounds were tested to ascertain whether they activate a human
Nanog promoter-driven luciferase reporter gene using in triplicate luciferase reporter assays.
(§1) Then the promoter sequences were cloned into pGL4.4-luc-Hyg vector (Promega) to get Oct4-luc or Nanog-luc construct and the fidelity of the Oct4 and Nanog promoter DNA sequences was confirmed by bi-directional sequencing. CV 1 cells were transfected with the Oct4-luc or Nanog-luc constructs and the stably-transfected cells were selected by hygromycine resistance.
(§2) Luciferase Reporter Assays: The Oct4-luc or Nanog-luc cells were treated with compound OAC 1 or its structural analogs at 1 μM concentration or at indicated concentrations in triplicates. Other compounds used include 2 μM BIO, 2 μM BIX, 2 μM
(§3) AzaC, 25 μg/ml Vc, 10 nM Am580, 5 μM tranylcypromine, and 0.5 mM VPA. Luciferase reporter assays were performed as described (51) 24 hr after compound treatment or at indicated time points. For Topflash reporter assays, 0.2 μg β-catenin-responsive Topflash reporter gene plasmid was introduced into CV1 cells using trasfection (Bio-Rad). Compounds were added 6 hr after transfection. Luciferase activity was measured 48 hr after compound treatment using the Glo Luciferase Assay System (Promega).

human Oct4 promoter = experiment: Oct4-luc luciferase reporter assay (stably transfected CV1 cells); format: cell-based; details: for Oct4-luc Activity / Oct4-luc fold Induction / fold induction at 1 µM: compound at 1 μM, Oct4-luc cells, triplicates; for induction of Oct4-luc, comparison with known reprogramming enhancers (in words): OAC1 1 μM, BIO 2 μM, BIX 2 μM, AzaC 2 μM, Vc 25 μg/ml, Am580 10 nM, tranylcypromine 5 μM, VPA 0.5 mM, two days
Excerpt: A high-throughput screening scheme was designed to identify Oct4 promoter-activating compounds using a luciferase reporter under the control of the human Oct4 promoter (Oct4-luc). […] A stable cell line (Oct4-luc) that expresses luciferase reporter driven by the exogenous Oct4 promoter was established using hygromycin-resistance as a selection marker. These Oct4-luc cells were used for high-throughput screening of a chemical library of 80,000 compounds. The luciferase reporter activity was measured 24 hr after compound treatment. Solvent treatment was included as a negative control.
as §1
Compound Screening: The Oct4-luc cells were seeded at 1.75×10^4 cells per well density into 96-well plates. Compounds were added to cells one day after cell seeding at the concentration of 10 μM for 24 hr in the High-Throughput Screening core facility at City of Hope. Compounds that induced luciferase activity 3-fold or more were selected for further validation in both Oct4-luc and Nanog-luc cells.
as §2, §3

[1] = Homo sapiens, CV-1, 24 h, read-out: Oct4-luc Activity
[2] = read-out: Oct4-luc fold Induction

| Compound | Nanog-luc fold Induction (human Nanog promoter) | Oct4-luc Activity (human Oct4 promoter) | Oct4-luc fold Induction (human Oct4 promoter) | induction of Nanog-luc, comparison with known reprogramming enhancers (in words) (human Nanog promoter) | induction of Oct4-luc, comparison with known reprogramming enhancers (in words) (human Oct4 promoter) | fold induction at 1 µM (human Nanog promoter) | fold induction at 1 µM (human Oct4 promoter; [1]) | fold induction at 1 µM (human Oct4 promoter; [2]) |
| --- | --- | --- | --- | --- | --- | --- | --- | --- |
| O=C(Nc1ccc2[nH]ccc2c1)c1ccc2nonc2c1 [OAC5] | 2.4 fold | ++ (Compounds that induce Oct4-luc 1.8-fold or more were classified as “++”) | 2.9 fold |  |  |  |  |  |
| O=C(Nc1ccc2[nH]ncc2c1)c1ccccc1 [OAC8] | 1.8 fold | ++ (Compounds that induce Oct4-luc 1.8-fold or more were classified as “++”) | 1.9 fold |  |  |  |  |  |
| CC(C)c1ccc(C(=O)Nc2ccc3[nH]ncc3c2)cc1 [OAC11] | 3.9 fold | ++ (Compounds that induce Oct4-luc 1.8-fold or more were classified as “++”) | 3.8 fold |  |  |  |  |  |
| COc1cc2nc(N3CCCN(C)CC3)nc(NC3CCN(Cc4ccccc4)CC3)c2cc1OC [BIX, reference compound] |  |  |  | no significant effect | no significant effect |  |  |  |
| COc1cc(C(=O)Nc2ccc3[nH]nnc3c2)cc(OC)c1OC [Compound C37] |  |  |  |  |  | 1.08 | < 1.8 | 1.05 |
| CCOc1ccccc1C(=O)Nc1ccc2[nH]ncc2c1 [Compound C26] | 1.2 fold | + (molecules that induce Oct4-luc less than 1.8-fold were indicated as “+”) | 1.2 fold |  |  |  |  |  |
| O=C(CCCCC1SCC2NC(=O)NC21)NCc1ccc(C(=O)Nc2ccc3[nH]ncc3c2)cc1 (stereo not shown) [Compound C42] |  |  |  |  |  | 0.97 | < 1.8 | 0.91 |
| NCc1ccc(C(=O)Nc2ccc3[nH]ncc3c2)cc1 [Compound C41] |  |  |  |  |  | 1.06 | < 1.8 | 1.01 |
| COc1cc(OC)c(C(=O)Nc2ccc3[nH]ncc3c2)cc1OC [Compound C33] |  |  |  |  |  | 1.1 | < 1.8 | 1 |
| COc1ccc(C(=O)Nc2ccc3[nH]ncc3c2)cc1 [OAC6] | 2.9 fold | ++ (Compounds that induce Oct4-luc 1.8-fold or more were classified as “++”) | 3.2 fold |  |  |  |  |  |
| CN1CCC(c2c[nH]c3ccc(NC(=O)c4ccc(F)cc4)cc23)CC1 [Compound C16] | 1.1 fold | + (molecules that induce Oct4-luc less than 1.8-fold were indicated as “+”) | 1.0 fold |  |  |  |  |  |
| Cc1ccc(C(=O)Nc2ccc3[nH]ncc3c2)cc1C [OAC13] | 2.9 fold | ++ (Compounds that induce Oct4-luc 1.8-fold or more were classified as “++”) | 2.8 fold |  |  |  |  |  |
| CN(C)c1ccc(C(=O)Nc2ccc3[nH]ncc3c2)cc1 [OAC17] | 4.56 fold | ++ (Compounds that induce Oct4-luc 1.8-fold or more were classified as “++”) | 4.2 fold |  |  |  |  |  |
| O=C(Nc1ccc2[nH]ncc2c1)c1ccccc1Cl [Compound C23] | 1.6 fold | + (molecules that induce Oct4-luc less than 1.8-fold were indicated as “+”) | 1.7 fold |  |  |  |  |  |
| O=C(Nc1ccc2[nH]ncc2c1)c1cccc(C(F)(F)F)c1 [Compound C21] | 1.2 fold | + (molecules that induce Oct4-luc less than 1.8-fold were indicated as “+”) | 1.2 fold |  |  |  |  |  |
| O=C(Nc1ccc2[nH]nnc2c1)c1cccc(Cl)c1 [Compound C31] | 1.1 fold | + (molecules that induce Oct4-luc less than 1.8-fold were indicated as “+”) | 1.0 fold |  |  |  |  |  |

| Compound | Nanog-luc fold Induction (human Nanog promoter) | Oct4-luc Activity (human Oct4 promoter) | Oct4-luc fold Induction (human Oct4 promoter) | induction of Nanog-luc, comparison with known reprogramming enhancers (in words) (human Nanog promoter) | induction of Oct4-luc, comparison with known reprogramming enhancers (in words) (human Oct4 promoter) | fold induction at 1 µM (human Nanog promoter) | fold induction at 1 µM (human Oct4 promoter; [1]) | fold induction at 1 µM (human Oct4 promoter; [2]) |
| --- | --- | --- | --- | --- | --- | --- | --- | --- |
| COc1ccc(C(=O)Nc2ccc3[nH]ncc3c2)c(OC)c1 [Compound C28] | 1.4 fold | + (molecules that induce Oct4-luc less than 1.8-fold were indicated as “+”) | 1.4 fold |  |  |  |  |  |
| Cc1nc2cc(NC(=O)c3ccc([N+](=O)[O-])cc3)ccc2[nH]1 [Compound C32] | 1.2 fold | + (molecules that induce Oct4-luc less than 1.8-fold were indicated as “+”) | 1.3 fold |  |  |  |  |  |
| COc1cccc(C(=O)Nc2ccc3[nH]ncc3c2)c1 [OAC15] | 1.9 fold | ++ (Compounds that induce Oct4-luc 1.8-fold or more were classified as “++”) | 1.9 fold |  |  |  |  |  |
| O=C(Nc1ccc2[nH]ncc2c1)c1c(F)c(F)c(F)c(F)c1F [Compound C36] |  |  |  |  |  | 1.02 | < 1.8 | 1 |
| COc1ccc(Cl)cc1C(=O)Nc1ccc2[nH]ncc2c1 [Compound C34] |  |  |  |  |  | 1.38 | < 1.8 | 1.23 |
| CCc1ccc(C(=O)Nc2ccc3[nH]ncc3c2)cc1 [OAC10] | 4.4 fold | ++ (Compounds that induce Oct4-luc 1.8-fold or more were classified as “++”) | 4.5 fold |  |  |  |  |  |
| O=C(Nc1ccc2[nH]ncc2c1)c1cccc(Cl)c1 [Compound C19] | 1.5 fold | + (molecules that induce Oct4-luc less than 1.8-fold were indicated as “+”) | 1.6 fold |  |  |  |  |  |
| COc1cccc(C(=O)Nc2ccc3[nH]ncc3c2)c1OC [Compound C27] | 1.4 fold | + (molecules that induce Oct4-luc less than 1.8-fold were indicated as “+”) | 1.4 fold |  |  |  |  |  |
| CC1(C)CCC(C)(C)c2cc(C(=O)Nc3ccc(C(=O)O)cc3)ccc21 [Am580, reference compound] |  |  |  | no significant effect | no significant effect |  |  |  |
| O=C(Nc1ccc2[nH]ccc2c1)c1ccc(F)cc1 [OAC3, 4-fluoro-N-(1H-indol-5-yl)benzamide] |  |  |  |  |  | 3.5 | ≥ 1.8 | 3.7 |
| COc1ccc(C(=O)Nc2ccc3[nH]ncc3c2)cc1OC [Compound C29] | 1.1 fold | + (molecules that induce Oct4-luc less than 1.8-fold were indicated as “+”) | 1.1 fold |  |  |  |  |  |
| O=C(Nc1ccc2[nH]ncc2c1)c1ccccc1F [Compound C22] | 1.6 fold | + (molecules that induce Oct4-luc less than 1.8-fold were indicated as “+”) | 1.5 fold |  |  |  |  |  |
| O=C(Nc1ccc2[nH]ncc2c1)c1cccc(Br)c1 [Compound C20] | 1.1 fold | + (molecules that induce Oct4-luc less than 1.8-fold were indicated as “+”) | 1.5 fold |  |  |  |  |  |
| COc1ccc(C(=O)Nc2ccc3[nH]c(C)cc3c2)cc1 [OAC16] | 3.43 fold | ++ (Compounds that induce Oct4-luc 1.8-fold or more were classified as “++”) | 3 fold |  |  |  |  |  |
| COc1ccc(C(=O)Nc2ccc3[nH]ccc3c2)cc1 [OAC4] | 4.9 fold | ++ (Compounds that induce Oct4-luc 1.8-fold or more were classified as “++”) | 4.8 fold |  |  |  |  |  |
| CCOc1ccc(C(=O)Nc2ccc3[nH]ncc3c2)cc1 [OAC9] | 4.4 fold | ++ (Compounds that induce Oct4-luc 1.8-fold or more were classified as “++”) | 4.4 fold |  |  |  |  |  |
